Converted amounts (≈) assume the structure as drawn. Structures can show the parent of a compound that is named as a salt. Marks after values point to notes of the source that are not given here. Values belong to the compound of their own block, whether it stands above or below them.
Legend:
HIV-1 strain GH3 = assay: Anti-HIV cytopathicity, acute infection of M8166 cells; assay type: cell-based; settings: high multiplicity of infection of 0.11424
HIV-2 strain GH1 = assay: Anti-HIV-2 cytopathicity in Molt 4 clone 8 cells; assay type: cell-based
Staphylococcus aureus = assay: Bacteria growth, tetrazolium-based colorimetry
Edwardsiella species = assay: Bacteria growth, tetrazolium-based colorimetry
Klebsiella pneumoniae = assay: Bacteria growth, tetrazolium-based colorimetry
Salmonella typhimurium = assay: Bacteria growth, tetrazolium-based colorimetry
PBMCs [1] = assay: Ex vivo effects on culture induced death of PBMCs of AIDS patients; assay type: cell-based, human; settings: four AIDS patients; noncytotoxic concentrations
PBMCs [2] = system: PBMCs
[3] = MOI 0.018, treatment after 40 mins of virus adsorption
[4] = Edwardsiella, inoculum 10^1 CID50
[5] = Edwardsiella, inoculum 10^2 CID50
[6] = Edwardsiella, inoculum 10^3 CID50
[7] = Salmonella enterica, TYPHIMURIUM

SMILES: OC[C@@H]1CC[C@H](n2cnc3c(O)ncnc32)O1 [ddino, 2′,3′-dideoxyinosine]
accelerated culture induced death of PBMCs from AIDS patients (PBMCs [1]): effective in these patients except one AIDS patient

SMILES: Nc1ccn([C@H]2CC[C@@H](CO)O2)c(=O)n1 [ddCyd, 2′,3′-dideoxycytidine]
accelerated culture induced death of PBMCs from AIDS patients (PBMCs [1]): effective in these patients except one AIDS patient | toxicity towards PBMCs from the healthy person (PBMCs [2]): no toxicity

SMILES: [H]/N=C(/N)N[C@H]1[C@H](O)[C@@H](O)[C@H](O[C@@H]2O[C@@H](C)[C@](O)(C=O)[C@H]2O[C@@H]2O[C@@H](CO)[C@H](O)[C@@H](O)[C@@H]2NC)[C@@H](N/C(N)=N\[H])[C@@H]1O [Streptomycin sulfate, streptomycin sulfate]
EC50 (Staphylococcus aureus; Staphylococcus aureus): < 400 ng/mL | EC90 (Staphylococcus aureus; Staphylococcus aureus): < 400 ng/mL | EC50 (Staphylococcus aureus; inoculum 10^2 CID50): <400 ng/mL | EC90 (Staphylococcus aureus; inoculum 10^2 CID50): <400 ng/mL | EC50 (Staphylococcus aureus; inoculum 10^3 CID50): <400 ng/mL | EC90 (Staphylococcus aureus; inoculum 10^3 CID50): <400 ng/mL | EC50 (Edwardsiella species; [4]): 63 µg/mL | EC90 (Edwardsiella species; [4]): 0.063 to 0.125 mg/mL | EC50 (Edwardsiella species; [5]): 63 µg/mL | EC90 (Edwardsiella species; [5]): 0.5 mg/mL | EC50 (Edwardsiella species; [6]): > 500 µg/mL | EC90 (Edwardsiella species; [6]): > 0.5 mg/mL | EC50 (Klebsiella pneumoniae; Klebsiella pneumoniae): < 0.001 mg/mL | EC90 (Klebsiella pneumoniae; Klebsiella pneumoniae): < 0.001 mg/mL | EC50 (Salmonella typhimurium; [7]): 0.016 to 0.032 mg/mL | EC90 (Salmonella typhimurium; [7]): 0.016 to 0.032 mg/mL | EC50 (Salmonella typhimurium; inoculum 10^2 CID50): 0.016 to 0.032 mg/mL | EC90 (Salmonella typhimurium; inoculum 10^2 CID50): 0.016 to 0.032 mg/mL | EC50 (Salmonella typhimurium; inoculum 10^3 CID50): 0.016 to 0.032 mg/mL | EC90 (Salmonella typhimurium; inoculum 10^3 CID50): 0.016 to 0.032 mg/mL

The next lines start with results.

EC50 (HIV-2 strain GH1; MOI 0.018, treatment 2 hrs after virus adsorption): 0.000001 mg/mL (≈ 0.00374 µM) | EC50 (HIV-2 strain GH1; [3]): <0.0000003* mg/ml | EC90 (HIV-2 strain GH1; [3]): 300 ng/mL (≈ 1.12 µM)
SMILES: Cc1cn([C@H]2C[C@H](N=[N+]=[N-])[C@@H](CO)O2)c(=O)[nH]c1=O [AZT, 3′-azido-2′,3′-dideoxythymidine]
cell protection (HIV-1 strain GH3): < 90%

EC50 (Staphylococcus aureus; inoculum 10^1 CID50): <500 ng/mL | EC90 (Staphylococcus aureus; inoculum 10^1 CID50): <500 ng/mL | EC50 (Staphylococcus aureus; inoculum 10^2 CID50): <500 ng/mL | EC90 (Staphylococcus aureus; inoculum 10^2 CID50): <500 ng/mL | EC50 (Staphylococcus aureus; inoculum 10^3 CID50): 2000 ng/mL | EC90 (Staphylococcus aureus; inoculum 10^3 CID50): 2000 to 4000 ng/mL | EC50 (Edwardsiella species; inoculum 10^1 CID50): 196 to 392 µg/mL | EC90 (Edwardsiella species; inoculum 10^1 CID50): 0.392 mg/mL | EC50 (Edwardsiella species; inoculum 10^2 CID50): 196 to 392 µg/mL | EC90 (Edwardsiella species; inoculum 10^2 CID50): 0.392 to 0.784 mg/mL | EC50 (Edwardsiella species; inoculum 10^3 CID50): >0.784* mg/ml | EC90 (Edwardsiella species; inoculum 10^3 CID50): >0.784 mg/mL | EC50 (Klebsiella pneumoniae; inoculum 10^2 CID50): 0.075 mg/mL | EC90 (Klebsiella pneumoniae; inoculum 10^2 CID50): 0.13 mg/mL | EC50 (Salmonella typhimurium; inoculum 10^1 CID50): 0.157 to 0.314 mg/mL | EC90 (Salmonella typhimurium; inoculum 10^1 CID50): 0.157–0.314* mg/ml
SMILES: CC1(C)S[C@@H]2[C@H](NC(=O)Cc3ccccc3)C(=O)N2[C@H]1C(=O)[O-].[Na+] [Penicillin G, sodium penicillin G]
